Eight molecules from ChEMBL document CHEMBL1154323, “Bioactive scalaranes from the Thai sponge Hyrtios gumminae” (J Nat Prod, 2009) can be followed below.

Assay type in all cases: functional, cell-based
Assay [1] concerns KB. Nature of the assay: Cytotoxicity against human KB cells.
In assay [2] the test system is HeLa. Nature of the assay: Cytotoxicity against human HeLa cells.
A short description of assay [3]: Cytotoxicity against human HuCCa1 cells. Particulars: HuCC-A1.
Assay [4] deals with MDA-MB-231. Nature of the assay: Cytotoxicity against human MDA-MB-231 cells.
Assay [5] concerns NCI-H69. Nature of the assay: Cytotoxicity against human adriamycin resistant H69 cells.
Assay [6] relates to T47D. Nature of the assay: Cytotoxicity against human T47D cells.
Assay [7] relates to MDA-MB-231. Description: Cytotoxicity against human MDA-MB-231 cells >100 uM.
Assay [8] concerns NCI-H69. Nature of the assay: Cytotoxicity against human adriamycin resistant H69 cells >100 uM.
The subject of assay [9] is T47D. Description: Cytotoxicity against human T47D cells >100 uM.
Assay [10] concerns HuCC-A1. Description: Cytotoxicity against human HuCCa1 cells at >100 uM.
The test system of assay [11] is HeLa. Description: Cytotoxicity against human HeLa cells >100 uM.
Assay [12] has as its system KB. Nature of the assay: Cytotoxicity against human KB cells >100 uM.

For orientation: IC50 means the concentration that gives 50% inhibition.

Structures are written as SMILES. Active and inactive are the calls of the source. No cut-off for these calls is given here.

`CC1(C)CCC[C@]2(C)[C@H]3C[C@@H](O)[C@]4(C)[C@H]5COC(=O)C5=CC[C@H]4[C@]3(C)CC[C@@H]12`: the half-maximal inhibitory concentration (IC50) in assay [1] is 7 µM; in assay [2] it was 23 µM; in [3], 42 µM; in assay [4], 5.9 µM; in assay [5], 57 µM; in assay [6], 5.2 µM.

On to `CC(C)CCC[C@@H](C)[C@H]1CC[C@H]2[C@@H]3CC=C4C[C@@H](O)CC[C@]4(C)[C@H]3CC[C@]12C`, for which the result in assay [7], in assay [8], in [9], in [10], in assay [11] and in [12] was inactive.

Regarding `CC1(C)CCC[C@]2(C)[C@H]3C[C@@H](O)[C@]4(C)C5=C(CC[C@H]4[C@]3(C)CC[C@@H]12)COC5=O`, the outcome in assay [7], in [8], in [9], in [10], in [11] and in assay [12] was inactive.

For `COc1cc([C@@H]2c3cc4c(cc3[C@@H](O[C@@H]3O[C@@H]5CO[C@@H](C)O[C@H]5[C@H](O)[C@H]3O)[C@H]3COC(=O)[C@H]23)OCO4)cc(OC)c1O` [ETOPOSIDE], the IC50 was determined as 0.5 µM in assay [1]; 0.4 µM in assay [2]; 5.1 µM in assay [3]; 0.3 µM in assay [4]; 46 µM in assay [5]; 0.1 µM in [6].

With `CC1(C)CCC[C@]2(C)[C@H]3C[C@@H](O)[C@]4(C)C5=C(C(=O)O[C@H]5O)[C@H](O)C[C@H]4[C@]3(C)CC[C@@H]12` [HYRTIOLIDE], the IC50 in [1] amounted to 12 µM; in [2] it was 22 µM; in [3], 57 µM; in assay [4], 26 µM; in assay [6], 34 µM.

For `CC1(C)CCC[C@]2(C)[C@H]3C[C@](C)(C=O)[C@@H](C[C@H](O)c4ccoc4)[C@]3(C)CC[C@@H]12` [HYRTIOSAL], the IC50 was determined as 7.8 µM in assay [1]; 18 µM in [2]; 9.1 µM in [3]; 5.4 µM in [4]; 31 µM in [5]; 9.1 µM in assay [6].

Regarding `CC(=O)O[C@H]1C[C@H]2[C@]3(C)CC[C@H]4C(C)(C)CCC[C@]4(C)[C@H]3C[C@@H](O)[C@]2(C)c2cocc21` [SCALARAFURAN], the concentration for half-maximal inhibition (IC50) in assay [1] was found to be 58 µM; in assay [2], 63 µM; in assay [3], 49 µM; in [4] it was 14 µM; in assay [5] it was 51 µM; in assay [6], 28 µM.

As for `CO[C@@H]1c2occc2[C@@H](O)C[C@H]2[C@]3(C)CC[C@H]4C(C)(C)CCC[C@]4(C)[C@H]3C[C@@]21C` [SIMILAN A], the IC50 in [1] is 75 µM; in assay [2], 125 µM; in assay [3], 90 µM; in assay [4], 58 µM; in assay [5] it was over 125 µM; in [6], 70 µM.
